The record followed here is patent publication US8846737B2, “Compound” (Sterix Limited, priority 2009, dated 2014).

The target in one assay is T1, Aromatase (Homo sapiens, UniProt P11511).
T1 construct: host or cells: JEG3 choriocarcinoma cells, intact monolayers
T1 sequence (P11511 1-503): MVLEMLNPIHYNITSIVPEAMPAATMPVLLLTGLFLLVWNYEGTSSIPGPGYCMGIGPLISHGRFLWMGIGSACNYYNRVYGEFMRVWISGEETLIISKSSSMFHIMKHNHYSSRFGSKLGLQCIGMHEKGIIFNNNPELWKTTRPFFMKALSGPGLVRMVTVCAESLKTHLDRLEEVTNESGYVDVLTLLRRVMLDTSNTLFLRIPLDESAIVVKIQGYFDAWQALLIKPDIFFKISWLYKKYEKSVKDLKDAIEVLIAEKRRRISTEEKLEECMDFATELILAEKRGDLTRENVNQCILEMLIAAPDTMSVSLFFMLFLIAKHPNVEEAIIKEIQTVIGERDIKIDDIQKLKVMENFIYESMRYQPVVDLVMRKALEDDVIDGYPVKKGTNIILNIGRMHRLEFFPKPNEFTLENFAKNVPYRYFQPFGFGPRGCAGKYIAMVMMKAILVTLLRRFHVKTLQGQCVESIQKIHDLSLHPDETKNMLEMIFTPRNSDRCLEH
Kind of assay: Aromatase activity in JEG3 cells (Protocol 6). It is filed as cell-based. The following applies: intact JEG3 cells, [1β-3H]androstenedione, 30 min. How it is done:
Assay for Determining Aromatase Activity Using JEG3 Cells
Aromatase activity is measured in JEG3 choriocarcinoma cells, obtained from the ATCC. […] During the aromatase reaction, ^3H2O is liberated which can be quantified using a liquid scintillation spectrometer. […] The number of cell nuclei per flask is determined using a Coulter Counter after treating the cell monolayers with Zaponin.
Aromatase inhibition was measured in accordance with Protocol 6.

Another assay concerns the target T2, Steroid sulphatase (STS) (Homo sapiens, UniProt P08842).
T2 construct: host or cells: JEG3 choriocarcinoma cells, intact monolayers
T2 sequence (P08842 22-583): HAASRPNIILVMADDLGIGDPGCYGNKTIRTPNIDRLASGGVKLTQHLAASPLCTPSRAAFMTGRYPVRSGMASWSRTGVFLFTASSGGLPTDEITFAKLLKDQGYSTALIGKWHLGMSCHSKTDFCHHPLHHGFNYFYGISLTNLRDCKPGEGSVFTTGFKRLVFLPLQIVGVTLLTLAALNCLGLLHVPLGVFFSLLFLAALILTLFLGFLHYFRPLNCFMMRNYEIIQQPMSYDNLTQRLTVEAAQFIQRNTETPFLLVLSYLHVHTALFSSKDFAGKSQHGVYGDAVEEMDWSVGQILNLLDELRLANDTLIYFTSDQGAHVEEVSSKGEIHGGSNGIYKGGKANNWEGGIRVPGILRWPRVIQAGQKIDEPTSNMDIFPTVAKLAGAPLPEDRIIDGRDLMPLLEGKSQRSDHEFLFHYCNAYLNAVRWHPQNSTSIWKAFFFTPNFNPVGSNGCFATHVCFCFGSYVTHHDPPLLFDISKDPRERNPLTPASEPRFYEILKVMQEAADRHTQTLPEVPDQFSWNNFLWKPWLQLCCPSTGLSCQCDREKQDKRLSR
Kind of assay: Inhibition of steroid sulphatase activity in JEG3 cells (Protocol 1). Conditions: intact JEG3 cells, [6,7-3H]oestrone-3-sulphate, 3-4 hours. It is filed as cell-based. How it is done: Assay for Determining STS Activity Using Cancer Cells
Inhibition of Steroid Sulphatase Activity in JEG3 Cells
Steroid sulphatase activity is measured in vitro using intact JEG3 choriocarcinoma cells.
Cells are maintained in Minimal Essential Medium (MEM) containing 20 mM HEPES, 5% foetal bovine serum, 2 mM glutamine, non-essential amino acids and 0.075% sodium bicarbonate. Up to 30 replicate 25 cm^2 tissue culture flasks are seeded with approximately 1×10^5 cells/flask using the above medium Cells are grown to 80% confluency and the medium is changed every third day.
Intact monolayers of JEG3 cells in triplicate 25 cm^2 tissue culture flasks are washed with Earle's Balanced Salt Solution (EBSS) and incubated for 3-4 hours at 37° C. with 5 pmol (7×10^5 dpm) [6, 7-3H]oestrone-3-sulphate (specific activity 60 Ci/mmol) in serum-free MEM (2.5 ml) together with oestrone-3-sulphamate (11 concentrations: 0; 1fM; 0.01 pM; 0.1 pM, 1 pM; 0.01 nM; 0.1 nM; 0.01 mM; 0.1 mM; 1 mM). After incubation each flask is cooled and the medium (1 ml) is pipetted into separate tubes containing [14C]oestrone (7×10^3 dpm) (specific activity 97 Ci/mmol). The mixture is shaken thoroughly for 30 seconds with toluene (5 ml) Experiments have shown that >90% [14C]oestrone and <0 1% [3H]oestrone-3-sulphate is removed from the aqueous phase by this treatment A portion (2 ml) of the organic phase is removed, evaporated and the 3H and 14C content of the residue determined by scintillation spectrometry The mass of oestrone-3-sulphate hydrolysed was calculated from the 3H counts obtained (corrected for the volumes of the medium and organic phase used, and for recovery of [14C] oestrone added) and the specific activity of the substrate Each batch of experiments includes incubations of microsomes prepared from a sulphatase-positive human placenta (positive control) and flasks without cells (to assess apparent non-enzymatic hydrolysis of the substrate). The number of cell nuclei per flask is determined using a Coulter Counter after treating the cell monolayers with Zaponin One flask in each batch is used to assess cell membrane status and viability using the Trypan Blue exclusion method (Phillips, H J. (1973) In: Tissue culture and applications, [eds: Kruse, D. F. & Patterson, M. K]; pp 406-408; Academic Press, New York)
Results for steroid sulphatase activity are expressed as the mean±1S.D. of the total product (oestrone+oestradiol) formed during the incubation period (3-4 hours) calculated for […] and, for values showing statistical significance, as a percentage reduction (inhibition) over incubations containing no oestrone-3-sulphamate. Unpaired Student's t-test was used to test the statistical significance of results
Sterioid sulphatase inhibition was measured in accordance with Protocol 1

Consider `N#Cc1ccc(N(Cc2ccc(O)cc2)n2cnnc2)cc1-c1ccccc1` [CAB06021, 5-((4-Hydroxybenzyl)(4H-1,2,4-triazol-4-yl)amino)biphenyl-2-carbonitrile], for which the concentration for half-maximal inhibition (IC50) (as a rule, the concentration at which inhibition is half-maximal) against Aromatase was under 0.1 nM.

At Aromatase, `N#Cc1ccc(Nn2cnnc2)cc1-c1ccccc1` [CAB06022, 5-(4H-1,2,4-Triazol-4-ylamino)biphenyl-2-carbonitrile] registered an IC50 of 0.39 ± 0.09 nM.

As to `N#Cc1ccc(N(Cc2ccc(OS(N)(=O)=O)cc2)n2cnnc2)cc1-c1ccccc1` [CAB06025, 4-(((6-Cyanobiphenyl-3-yl)(4H-1,2,4-triazol-4-yl)amino)methyl)phenyl sulfamate], the IC50 at Aromatase amounted to 0.14 ± 0.01 nM; on Steroid sulphatase (STS) it was 17 ± 2 nM.

On Aromatase, `N#Cc1ccc(N(Cc2ccc(O)c(Br)c2)n2cnnc2)cc1-c1ccccc1` [CAB06026, 5-((3-Bromo-4-hydroxybenzyl)(4H-1,2,4-triazol-4-yl)amino)biphenyl-2-carbonitrile] had an IC50 of 3.6 ± 0.4 nM.

As to `N#Cc1ccc(N(Cc2ccc(O)c(F)c2)n2cnnc2)cc1-c1ccccc1` [CAB06043, 5-((3-Fluoro-4-hydroxybenzyl)(4H-1,2,4-triazol-4-yl)amino)biphenyl-2-carbonitrile], the IC50 against Aromatase was found to be 1.6 ± 0.6 nM.

With `N#Cc1ccc(N(Cc2ccc(OS(N)(=O)=O)c(F)c2)n2cnnc2)cc1-c1ccccc1` [CAB06044, 4-(((6-Cyanobiphenyl-3-yl)(4H-1,2,4-triazol-4-yl)amino)methyl)-2-fluorophenyl sulfamate], the IC50 against Aromatase worked out at 0.15 ± 0.03 nM; against Steroid sulphatase (STS), 2.3 ± 0.9 nM.

Regarding `N#Cc1ccc(N(Cc2ccc(OS(N)(=O)=O)c(Br)c2)n2cnnc2)cc1-c1ccccc1` [CAB06045, 2-Bromo-4-(((6-cyanobiphenyl-3-yl)(4H-1,2,4-triazol-4-yl)amino)methyl)phenyl sulfamate], the IC50 is 0.018 ± 0.01 nM against Aromatase and 0.13 ± 0.01 nM at Steroid sulphatase (STS).

On Aromatase, `COc1ccc(-c2cc(Nn3cnnc3)ccc2C#N)cc1` [CAB06046, 5-(4H-1,2,4-Triazol-4-ylamino)-4′-methoxybiphenyl-2-carbonitrile] returned an IC50 of 0.26 ± 0.12 nM.

For the compound `N#Cc1ccc(N(Cc2ccc(OS(N)(=O)=O)c(Cl)c2)n2cnnc2)cc1-c1ccccc1` [CAB06049, 2-Chloro-4-(((6-cyanobiphenyl-3-yl)(4H-1,2,4-triazol-4-yl)amino)methyl)phenyl sulfamate], the IC50 worked out at 0.015 ± 0.005 nM at Aromatase and 0.83 ± 0.15 nM at Steroid sulphatase (STS).

Compound `N#Cc1ccc(N(Cc2ccccc2)n2cnnc2)cc1-c1ccc(O)cc1` [CAB06052, 5-(Benzyl-[1,2,4]triazol-4-yl-amino)-4′-hydroxy-biphenyl-2-carbonitrile] displayed a half-inhibitory concentration (IC50) on Aromatase of 0.33 ± 0.01 nM.

`N#Cc1ccc(N(Cc2ccccc2)n2cnnc2)cc1-c1ccc(OS(N)(=O)=O)cc1` [CAB06054, 5′-(Benzyl(4H-1,2,4-triazol-4-yl)amino)-2′-cyanobiphenyl-4-yl sulfamate]: the results for the IC50 against Aromatase and on Steroid sulphatase (STS) were 0.1 ± 0.02 nM and 2900 ± 180 nM, respectively.

With `N#Cc1ccc(N(Cc2ccc(Br)cc2)n2cnnc2)cc1-c1ccc(OS(N)(=O)=O)cc1` [CAB06059, 5′-((4-Bromobenzyl)(4H-1,2,4-triazol-4-yl)amino)-2′-cyanobiphenyl-4-yl sulfamate], the IC50 at Aromatase was determined as 0.05 ± 0.01 nM; against Steroid sulphatase (STS) it was 2900 ± 100 nM.

For the compound `COc1ccc(-c2cc(N(Cc3ccc(OS(N)(=O)=O)cc3)n3cnnc3)ccc2C#N)cc1` [CAB06077], the IC50 on Aromatase was 0.015 ± 0.001 nM; against Steroid sulphatase (STS) it was 22 ± 6 nM.

Take `N#Cc1ccc(N(Cc2ccc(OS(N)(=O)=O)cc2)n2cnnc2)cc1-c1ccc(F)cc1` [CAB06078, 4-(((6-Cyano-4′-fluorobiphenyl-3-yl)(4H-1,2,4-triazol-4-yl)amino)methyl)phenyl sulfamate]: the IC50 at Aromatase was 0.47 ± 0.18 nM; on Steroid sulphatase (STS), 55 ± 6 nM.

Consider `N#Cc1ccc(-c2cc(N(Cc3ccc(OS(N)(=O)=O)cc3)n3cnnc3)ccc2C#N)cc1` [CAB06088, 4-(((4′,6-Dicyanobiphenyl-3-yl)(4H-1,2,4-triazol-4-yl)amino)methyl)phenyl sulfamate], for which the IC50 on Aromatase was determined as 0.75 ± 0.18 nM; on Steroid sulphatase (STS) it was 240 ± 60 nM.

The compound `N#Cc1ccc(N(Cc2ccc(Br)cc2)n2cnnc2)cc1-c1ccccc1` [Compound 1] showed an IC50 on Aromatase of under 0.1 nM.

On Aromatase, `N#Cc1ccc(N(Cc2ccc(Br)cc2)n2cnnc2)c(-c2ccccc2)c1` [Compound 2] came in with an IC50 of 960 ± 53 nM.

As for `N#Cc1ccc(N(Cc2ccc(OS(N)(=O)=O)cc2)n2cnnc2)cc1-c1ccccc1` [Compound 3], the values for the IC50 against Aromatase and against Steroid sulphatase (STS) were 0.25 ± 0.03 nM and 3 ± 0.5 nM, respectively.

`N#Cc1ccc(N(Cc2ccc(O)cc2)n2cnnc2)cc1Cc1ccccc1` [Compound 12] registered an IC50 at Aromatase of under 0.1 nM.

In turn, `N#Cc1ccc(N(Cc2ccc(OS(N)(=O)=O)cc2)n2cnnc2)cc1N1CCOCC1` [Compound 21] yielded a concentration for half-maximal inhibition (IC50) at Aromatase of 44 ± 5 nM.

`CN1CCN(c2cc(N(Cc3ccc(O)cc3)n3cnnc3)ccc2C#N)CC1` [Compound 22]: on Aromatase, the IC50 was found to be 13.8 ± 4.51 nM.

`N#Cc1ccc(N(CCc2c(F)cc(O)cc2F)n2cnnc2)cc1` [Compound 24] returned an IC50 against Aromatase of 0.14 ± 0.03 nM.

The compound `N#Cc1ccc(N(CCc2c(F)cc(OS(N)(=O)=O)cc2F)n2cnnc2)cc1` [Compound 25] showed an IC50 on Steroid sulphatase (STS) of 485 ± 50.7 nM.

On to `N#Cc1ccc(N(Cc2ccc(OS(N)(=O)=O)cc2)n2cnnc2)c2ccccc12` [Compound 27], for which the IC50 against Aromatase came to 200 ± 5 nM.

The compound `N#Cc1ccc(N(Cc2ccc(O)cc2F)n2cnnc2)cc1-c1ccccc1` [Compound 30] displayed an IC50 on Aromatase of 0.35 ± 0.06 nM.

`N#Cc1ccc(N(Cc2ccc(O)c(F)c2F)n2cnnc2)cc1-c1ccccc1` [Compound 33] had an IC50 at Aromatase of 1 ± 0.3 nM.

As to `COc1ccc(-c2cc(N(Cc3c(F)cc(O)cc3F)n3cnnc3)ccc2C#N)cc1` [Compound 35], the IC50 against Aromatase is under 0.1 nM.

`N#Cc1ccc(C(c2ccc(O)cc2)n2cncn2)cc1-c1ccccc1` (stereo not shown) [Compound 37]: it took 0.23 ± 0.04 nM to reach half-maximal inhibition at Aromatase (IC50).

`N#Cc1ccc(N(Cc2ccc(O)cc2)n2cnnc2)cc1CN1CCCC1` [Compound 40] registered an IC50 at Aromatase of 8 nM.

At Aromatase, `COc1ccc(Cc2cc(N(Cc3ccc(O)cc3)n3cnnc3)ccc2C#N)cc1` [Compound 44] returned an IC50 of 3.1 ± 0.4 nM.

Compound `N#Cc1ccc(N(Cc2c(F)cc(O)cc2F)n2cnnc2)cc1-c1ccc(F)cc1` [Compound 46] registered an IC50 at Aromatase of 4.1 ± 0.2 nM.

`N#Cc1ccc(N(Cc2ccc(O)cc2)n2cnnc2)cc1-c1ccncc1` [Compound 50] had an IC50 on Aromatase of 4.03 ± 0.29 nM.

Take `N#Cc1ccc(N(Cc2ccc(O)cc2)n2cnnc2)cc1Oc1ccccc1` [Compound 56]: at Aromatase, the IC50 was 1.82 ± 0.03 nM.
